Test results taken from patent publication US20230212164A1, “ANNULATED 2-AMINO-3-CYANO THIOPHENES AND DERIVATIVES FOR THE TREATMENT OF CANCER” (BOEHRINGER INGELHEIM INTERNATIONAL GMBH, priority 2020, published 2023).

What was measured:
[1] = target: T1, protein-protein interaction between SOS1 and KRAS G12C (Homo sapiens, UniProt P01116, C118S/C51S/C80L/G12C); test: KRAS::SOS1 AlphaScreen binding assay; details: Table 36
T1 construct: His6 (N)
Description: KRAS::SOS1 AlphaScreen Binding Assay
Assay buffer: • 1×PBS • 0.1% BSA • 0.05% Tween 20
AlphaLISA Glutathione Acceptor Beads and AlphaScreen Streptavidin Donor Beads are mixed in assay buffer at a concentration of 10 μg/mL (final assay concentration) each prior to use and kept at room temperature.
Compounds are diluted to a final start concentration of 100 μM and are tested in duplicate. […] For compound a start concentration of 100 μM, 150 nL of compound solution is transferred per well in 11 concentrations in duplicate with serial 1:5 dilutions.
The assay is run using a fully automated robotic system in a darkened room below 100 Lux. 10 μL of KRAS::SOS1 GDP mix is added into columns 1-24 to the 150 nL of compound solution (final dilution in the assay 1:100, final DMSO concentration 1%).
After 30 minutes incubation time 5 μL of bead mix is added into columns 1-23. Plates are kept at room temperature in a darkened incubator. After further 60 minutes incubation, the signal is measured using a PerkinElmer Envision HTS Multilabel Reader using the AlphaScreen specifications from PerkinElmer. Each plate contains the following controls: • diluted DMSO+KRAS::SOS1 GDP mix+bead mix • diluted DMSO+KRAS::SOS1 GDP mix
IC50 values are calculated and analyzed using a 4 parametric logistic model.

[2] = target: KRASG12-dependent Ba/F3 cells (Homo sapiens, UniProt P01116, G12C, cells depend on it); test: Ba/F3 cell model proliferation assay (AlamarBlue, 72 h); assay type: cell-based; details: Ba/F3 cells transduced with KRASG12C, read-out: IC50 Ba/F3 KRASG12C
Chain of KRASG12-dependent Ba/F3 cells (P01116 whole entry G12C): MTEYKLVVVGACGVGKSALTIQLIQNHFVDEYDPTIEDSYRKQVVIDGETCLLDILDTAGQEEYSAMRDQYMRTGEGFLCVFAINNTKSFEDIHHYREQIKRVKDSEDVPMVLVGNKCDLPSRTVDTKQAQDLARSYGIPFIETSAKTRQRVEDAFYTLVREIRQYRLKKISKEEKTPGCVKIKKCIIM
Description: Ba/F3 Cell Model Generation and Proliferation Assay
Plasmids containing KRASG12 mutants were obtained from GeneScript. To generate KRASG12-dependent Ba/F3 models, Ba/F3 cells were transduced with retroviruses containing vectors that harbor KRASG12 isoforms. Platinum-E cells (Cell Biolabs) were used for retrovirus packaging. Retrovirus was added to Ba/F3 cells. To ensure infection, 4 μg/mL polybrene was added and cells were spinfected. […] Cells with an infection efficiency of 10% to 20% were further cultivated and puromycin selection with 1 μg/mL was initiated. As a control, parental Ba/F3 cells were used to show selection status. Selection was considered successful when parental Ba/F3 cells cultures died. To evaluate the transforming potential of KRASG12 mutations, the growth medium was no longer supplemented with IL-3. Ba/F3 cells harboring the empty vector were used as a control. Approximately ten days before conducting the experiments, puromycin was left out.
All treatments were performed in technical duplicates. The assay is run using a fully automated robotic system. Treated cells were incubated for 72 h at 37° C. with 5% CO2.
AlamarBlue™ (ThermoFisher), a viability stain, was added and fluorescence measured in the PerkinElmer Envision HTS Multilabel Reader.

[3] = system: pERK (Thr202/Tyr204) in NCI-H358_Cas9_SOS2 (SOS2 knocked); test: ERK phosphorylation assay 2 (AlphaLISA SureFire Ultra p-ERK1/2); details: read-out: IC50 H358 pERK, ERK phosphorylation assay 2 (values marked with *)
Description: ERK Phosphorylation Assay
Low IC50 values in this assay setting are indicative of high potency of the compounds according to the invention.
GFP positive cells were collected and further expanded. These GFP-positive cell pools were single-cell diluted and SOS2 knock-out clones were identified via Western-blot and genomic DNA sequencing analysis.
Materials Used for the Assay:
(§1) AlphaLISA SureFire Ultra p-ERK1/2 (Thr202/Tyr204) Assay Kit (ALSU-PERK-A500)
Cells are seeded at 40,000 cells per well in /60 μL of RPMI with 10% FBS, non-essential amino acids, pyruvate and glutamax in Greiner TC 384 plates. The cells are incubated for 1 h at room temperature and then incubated overnight in an incubator at 37° C. and 5% CO2 in a humidified atmosphere. 60 nL compound solution (10 mM DMSO stock solution) is then added using a Labcyte Echo 550 device. After a 1 h incubation in the aforementioned incubator the medium is removed after centrifugation and the cells lysed by addition of 20 μL of 1.6-fold lysis buffer from the AlphaLISA SureFire Ultra pERK1/2 (Thr202/Tyr204) Assay Kit with added protease inhibitors, 100 nM trametinib+100 nM staurosporine. After 20 minutes of incubation at room temperature with shaking, 6 μL of each lysate sample is transferred to a 384-well Proxiplate and analyzed for pERK (Thr202/Tyr204) with the AlphaLISA SureFire Ultra pERK1/2 (Thr202/Tyr204) Assay Kit. 3 μL Acceptor Mix and 3 μL Donor Mix are added under subdued light and incubated for 2 h at room temperature in the dark, before the signal is measured on a PerkinElmer Envision HTS Multilabel Reader. The raw data were imported into and analyzed with the Boehringer Ingelheim proprietary software MegaLab (curve fitting based on the program PRISM, GraphPad Inc.).

[4] = system: pERK (Thr202/Tyr204) in NCI-H358 (KRAS G12C mutation); test: ERK phosphorylation assay 1 (AlphaLISA SureFire Ultra p-ERK1/2); details: Homo sapiens, NCI-H358, read-out: IC50 H358 pERK
Description: ERK Phosphorylation Assay
Materials Used for the Assay:
as §1
The cells are incubated for 1 h at room temperature and then incubated overnight in an incubator at 37° C. and 5% CO2 in a humidified atmosphere. 60 nL compound solution (10 mM DMSO stock solution) is then added using a Labcyte Echo 550 device. […] After 20 minutes of incubation at room temperature with shaking, 6 μL of each lysate sample is transferred to a 384-well Proxiplate and analyzed for pERK (Thr202/Tyr204) with the AlphaLISA SureFire Ultra pERK1/2 (Thr202/Tyr204) Assay Kit. 3 μL Acceptor Mix and 3 μL Donor Mix are added under subdued light and incubated for 2 h at room temperature in the dark, before the signal is measured on a PerkinElmer Envision HTS Multilabel Reader. The raw data were imported into and analyzed with the Boehringer Ingelheim proprietary software MegaLab (curve fitting based on the program PRISM, GraphPad Inc.).

T1 sequence (P01116 1-169 isoform P01116-2 G12C/C51S/C80L/C118S): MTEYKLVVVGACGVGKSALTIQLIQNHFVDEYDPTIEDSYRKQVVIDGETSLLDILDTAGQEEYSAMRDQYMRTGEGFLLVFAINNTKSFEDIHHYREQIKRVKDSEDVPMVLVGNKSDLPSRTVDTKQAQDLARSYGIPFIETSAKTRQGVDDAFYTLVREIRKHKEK

Row | SMILES | IC50 [1] [nM] | GI50 [2] [nM] | IC50 [3] [nM] | IC50 [4] [nM]
1 | C=CC(=O)N1CCN(c2cc(-c3noc([C@@]4(C)CCCc5sc(N)c(C#N)c54)n3)nc(O[C@@H](C)[C@@H]3CCCN3C)n2)CC12CC2 [Ia-57] | 1.5 | 5.9 | 0.9 | –
2 | C=CC(=O)N1CCN(c2cc(-c3noc([C@@]4(C)CCCc5sc(N)c(C#N)c54)n3)nc(N3CCC4(CC(O)C4)C3)n2)CC1 (stereo partly shown) [Ia-76] | 391 | – | 1000 | –
3 | C=CC(=O)N1CCN(c2cc(-c3noc([C@@]4(C)CCCc5sc(N)c(C#N)c54)n3)nc(N3CCCN(CCOC)C[C@@H]3C)c2)CC1 [Ia-130] | 7 | 37.4 | – | 16.6
4 | C=CC(=O)N1CCN(c2cc(-c3noc([C@@]4(C)CCCc5sc(N)c(C#N)c54)n3)nc(O[C@H]3CCN(C)[C@H]3C)n2)CC1 [Ia-68] | 27 | – | 269 | –
5 | C=CC(=O)N1C[C@@H]2CN(c3cc(-c4noc([C@@]5(C)CCCc6sc(N)c(C#N)c65)n4)nc(N4CCCN(C)C[C@@H]4C)n3)[C@@H]2C1 [Ia-101] | 44 | 933 | – | –
6 | C=CC(=O)N1CCN(c2cc(-c3noc(C4(C)CCCc5sc(N)c(C#N)c54)n3)nc(N3CCCN(CCCOC)C[C@@H]3C)c2)CC1 (stereo partly shown) [Ia-19] | 5 | 25.6 | – | 6.2
7 | C=CC(=O)N1CCN(c2cc(-c3noc([C@@]4(C)CCCc5sc(N)c(C#N)c54)n3)nc(OC[C@@H]3CCCN3C)n2)CC1 [Ia-47] | 3 | 186 | – | –
8 | C=CC(=O)N1CCN(c2cc(-c3noc([C@@]4(C)CCCc5sc(N)c(C#N)c54)n3)nc(N3CCCN([C@H]4CCOC4)C[C@@H]3C)n2)CC1 [Ia-44] | 1.5 | 2.5 | – | –
9 | C=CC(=O)N1CCN(c2cc(-c3noc(C4(C)CCCc5sc(N)c(C#N)c54)n3)nc(N3CCC(N4CC[C@@H](F)C4)CC3)c2)CC1 (stereo partly shown) [Ia-39] | 10 | 87.6 | – | 6.2
10 | C=CC(=O)N1CCN(c2cc(-c3noc([C@@]4(C)CCCc5sc(N)c(C#N)c54)n3)nc(N3CCCN(CCOC)C[C@@H]3C)n2)CC1 [Ia-129] | 6 | 22.5 | – | 6.4
11 | C=CC(=O)N1CCCN(c2cc(-c3noc([C@@]4(C)CCCc5sc(N)c(C#N)c54)n3)nc(O[C@@H](C)[C@@H]3CCCN3C)n2)CC1 [Ia-52] | 1.8 | 18.4 | – | –
12 | C=CC(=O)N1CCN(C2CN(c3cc(-c4noc([C@@]5(C)CCCc6sc(N)c(C#N)c65)n4)nc(N4CCCN(C)C[C@@H]4C)n3)C2)CC1 [Ia-100] | 84 | 2200 | – | –
13 | C=CC(=O)N(C)CCOc1cc(-c2noc([C@@]3(C)CCCc4sc(N)c(C#N)c43)n2)nc(N2CCCN(C)C[C@@H]2C)n1 [Ia-74] | 61 | 254 | – | –
14 | [2H]C([2H])([2H])N1CCN(c2cc(N3CCN(C(=O)C=C)CC3)cc(-c3noc(C4(C)CCCc5sc(N)c(C#N)c54)n3)n2)CC1 (stereo not shown) [Ia-128] | 64 | 681 | – | 13.3
15 | C=CC(=O)N1CCN(c2cc(O[C@@H]3CCN(C)C3)nc(-c3noc([C@@]4(C)CCCc5sc(N)c(C#N)c54)n3)c2)CC1 [Ia-127] | 60 | 1430 | – | 22.1
16 | C=CC(=O)N1CCCC(Oc2cc(-c3noc([C@@]4(C)CCCc5sc(N)c(C#N)c54)n3)nc(N3CCCN(C)C[C@@H]3C)c2)C1 (stereo partly shown) [Ia-6] | 311 | – | 206 | –
17 | C=CC(=O)N1CCN(c2cc(-c3noc([C@@]4(C)CCCc5sc(N)c(C#N)c54)n3)nc(O[C@@H](CC)[C@@H]3CCCN3C)n2)CC1 [Ia-138] | 2 | – | 7.8 | –
18 | C=CC(=O)N1CCN(c2cc(-c3noc([C@@]4(C)CCCc5sc(N)c(C#N)c54)n3)nc(OC3(CN4CCCC4)CC3)n2)CC1 [Ia-67] | 15 | – | 177 | –
19 | C=CC(=O)N1CCC2(C1)CN(c1cc(-c3noc([C@@]4(C)CCCc5sc(N)c(C#N)c54)n3)cc(N3CCCN(C)C[C@@H]3C)n1)C2 [Ia-95] | 46 | 946 | – | –

Row | SMILES | IC50 [1] [nM] | GI50 [2] [nM] | IC50 [3] [nM] | IC50 [4] [nM]
20 | C=CC(=O)N1CCN(c2cc(-c3noc([C@@]4(C)CCCc5sc(N)c(C#N)c54)n3)nc(N3CCCN([C@@H]4CCOC4)C[C@@H]3C)n2)CC1 [Ia-43] | 1.7 | 2.7 | – | –
21 | C=CC(=O)N1CCN(c2cc(-c3noc([C@@]4(C)CCCc5sc(N)c(C#N)c54)n3)nc(N3CCCN(CC4(C)COC4)C[C@@H]3C)n2)CC1 [Ia-41] | 1.8 | 10.2 | – | –
22 | C=CC(=O)N1CCN(c2cc(-c3noc([C@@]4(C)CCCc5sc(N)c(C#N)c54)n3)nc(OC3CC4(CCN(C)C4)C3)n2)CC1 (stereo partly shown) [Ia-69] | 23 | – | 298 | –
23 | C=CC(=O)N1CC2(CCN(c3cc(-c4noc([C@@]5(C)CCCc6sc(N)c(C#N)c65)n4)nc(N4CCCN(C)C[C@@H]4C)n3)C2)C1 [Ia-94] | 77 | 2290 | – | –
24 | C=CC(=O)N1CCN(c2cc(-c3noc([C@@]4(C)CCCc5sc(N)c(C#N)c54)n3)nc(N3CCCN(C)C[C@@H]3C)n2)CC1 [Ia-131] | 5 | 22.4 | – | 6.2
25 | C=CC(=O)N1CCN(c2cc(-c3noc([C@@]4(C)CCCc5sc(N)c(C#N)c54)n3)nc(N3CCN(C)CC3)c2)CC1 [Ia-116] | 31 | 208 | – | 6.4
26 | C=CC(=O)N1CCC(Oc2cc(-c3noc(C4(C)CCCc5sc(N)c(C#N)c54)n3)nc(N3CCN(C)CC3)c2)CC1 (stereo not shown) [Ia-88] | 71 | 381 | – | –
27 | C=CC(=O)N1CC2CN(c3cc(-c4noc([C@@]5(C)CCCc6sc(N)c(C#N)c65)n4)nc(N4CCCN(C)C[C@@H]4C)n3)CC2C1 (stereo partly shown) [Ia-97] | 43 | 967 | – | –
28 | C=CC(=O)N1CCN(c2cc(-c3noc(C4(C)CCCc5sc(N)c(C#N)c54)n3)nc(N3CCC4(CCN(C)CC4)CC3)c2)CC1 (stereo not shown) [Ia-34] | 259 | 4380 | – | 282
29 | C=CC(=O)N1CCN(c2cc(-c3noc([C@@]4(C)CCCc5sc(N)c(C#N)c54)n3)nc(N3CC[C@H](O)[C@@H]3C)n2)CC1 [Ia-75] | 180 | – | 553 | –
30 | C=CC(=O)N1CCN(c2cc(-c3noc([C@@]4(C)CCCc5sc(N)c(C#N)c54)n3)nc(N3CCOC[C@@H]3C)n2)CC1 [Ia-73] | 222 | – | 138 | –
31 | C=CC(=O)N1CCN(c2cc(-c3noc([C@@]4(C)CCCc5sc(N)c(C#N)c54)n3)nc(O[C@H]3C4CC5CN(C)[C@@H]3[C@H]5C4)n2)CC1 (stereo partly shown) [Ia-51] | 19 | – | 98.5 | –
32 | C=CC(=O)N1CCC(Oc2cc(-c3noc(C4(C)CCCc5sc(N)c(C#N)c54)n3)nc(N3CCN(C)C[C@@H]3C)c2)CC1 (stereo partly shown) [Ia-114] | 11 | 12.6 | – | 4.1
33 | C=CC(=O)N1CC(N2CCN(c3cc(-c4noc([C@@]5(C)CCCc6sc(N)c(C#N)c65)n4)nc(N4CCCN(CCCOC)C[C@@H]4C)n3)CC2)C1 [Ia-99] | 45 | 1040 | – | –
34 | C=CC(=O)N1CCN(c2cc(-c3noc([C@@]4(C)CCCc5sc(N)c(C#N)c54)n3)nc(OC(C)CN3CCN(C)CC3)n2)CC1 (stereo partly shown) [Ia-66] | 9 | – | 124 | –
35 | C=CC(=O)N1CCN(c2cc(-c3noc([C@@]4(C)CCCc5sc(N)c(C#N)c54)n3)nc(OC3CC4CCC(C3)N4C)n2)CC1 (stereo partly shown) [Ia-70] | 49 | – | 413 | –
36 | C=CC(=O)N1CCC2(CCN(c3cc(-c4noc([C@@]5(C)CCCc6sc(N)c(C#N)c65)n4)nc(N4CCCN(CCCOC)C[C@@H]4C)n3)CC2)C1 [Ia-98] | 59 | 662 | – | –
37 | C=CC(=O)N1CCN(c2cc(-c3noc(C4(C)CCCc5sc(N)c(C#N)c54)n3)nc(N3CCN(C)C[C@@H]3CC)c2)CC1 (stereo partly shown) [Ia-15] | 53 | 219 | – | 7.3
38 | C=CC(=O)N1CCC2(CC1)CN(c1cc(-c3noc([C@@]4(C)CCCc5sc(N)c(C#N)c54)n3)nc(N3CCCN(CCCOC)C[C@@H]3C)n1)C2 [Ia-92] | 16 | 178 | – | –
